Counter-ions that a name gives are not always drawn.

The assay has as its target T1, SYK (Homo sapiens, UniProt P43405).
T1 construct: Recombinant proteins SYK FL was produced at NMS via baculo virus infection in insect cells; His; GST; made in house; host or cells: insect cells (baculovirus)
In words: Biochemical kinase inhibition assay on SYK, KinaseGlo assay format. The conditions noted are these: Table A; KinaseGlo format, pre-activated SYK 2.5 nM, ATP 2.5 μM, substrate BioDBn*327 125 uM, 60 minutes at rt; read-out: IC50 (μM) Kglo.
Turning to `Cc1cc(C)cc(Nc2nccc(-c3cc(C(=O)NC(C)C)n(C)n3)n2)c1` [Example 4, 3-{2-[(3,5-dimethylphenyl)amino]pyrimidin-4-yl}-1-methyl-N-(propan-2-yl)-1H-pyrazole-5-carboxamide], the IC50 (commonly the concentration that gives 50% inhibition) was 0.111 µM. The figure for `Cc1cc(C)cc(Nc2nccc(-c3cc(C(=O)N(C)CCN(C)C)n(C)n3)n2)c1` [Example 5, N-[2-(dimethylamino)ethyl]-3-{2-[(3,5-dimethylphenyl)amino]pyrimidin-4-yl}-N,1-dimethyl-1H-pyrazole-5-carboxamide] is 0.084 µM; for `Cc1cc(C)cc(Nc2nccc(-c3cc(C(=O)NC4CNC4)n(C)n3)n2)c1` [Example 8, N-(azetidin-3-yl)-3-{2-[(3,5-dimethylphenyl)amino]pyrimidin-4-yl}-1-methyl-1H-pyrazole-5-carboxamide trifluoroacetate] it is 0.282 µM; for `Cc1cc(C)cc(Nc2nccc(-c3cc(C(=O)NCCN4CCOCC4)n(C)n3)n2)c1` [Example 9, 3-{2-[(3,5-dimethylphenyl)amino]pyrimidin-4-yl}-1-methyl-N-[2-(morpholin-4-yl)ethyl]-1H-pyrazole-5-carboxamide] it is 0.398 µM. The figure for `Cc1cc(C)cc(Nc2nccc(-c3cc(C(=O)NCCNC(C)C)n(C)n3)n2)c1` [Example 12, 3-{2-[(3,5-dimethylphenyl)amino]pyrimidin-4-yl}-1-methyl-N-[2-(propan-2-ylamino)ethyl]-1H-pyrazole-5-carboxamide hydrochloride] is 0.398 µM. The figure for `Cc1cc(C)cc(Nc2nccc(-c3cc(C(N)=O)n(C)n3)n2)c1` [Example 13, 3-{2-[(3,5-dimethylphenyl)amino]pyrimidin-4-yl}-1-methyl-1H-pyrazole-5-carboxamide] is 0.226 µM. As to `Cc1cc(C)cc(Nc2nccc(-c3cc(C(=O)N(C)C)n(C)n3)n2)c1` [Example 15, 3-{2-[(3,5-dimethylphenyl)amino]pyrimidin-4-yl}-N,N,1-trimethyl-1H-pyrazole-5-carboxamide], the IC50 came out at 0.358 µM. The same measure for `COCCNC(=O)c1cc(-c2ccnc(Nc3cc(C)cc(C)c3)n2)nn1C` [Example 16, 3-{2-[(3,5-dimethylphenyl)amino]pyrimidin-4-yl}-N-(2-methoxyethyl)-1-methyl-1H-pyrazole-5-carboxamide]: 0.272 µM. The figure for `Cc1cc(C)cc(Nc2nccc(-c3cc(C(=O)NCCF)n(C)n3)n2)c1` [Example 17, 3-{2-[(3,5-dimethylphenyl)amino]pyrimidin-4-yl}-N-(2-fluoroethyl)-1-methyl-1H-pyrazole-5-carboxamide] is 0.06 µM; for `CN(C)CCNC(=O)c1cc(-c2ccnc(Nc3cc(C(F)(F)F)cc(C(F)(F)F)c3)n2)nn1C` [Example 18, 3-(2-{[3,5-bis(trifluoromethyl)phenyl]amino}pyrimidin-4-yl)-N-[2-(dimethylamino)ethyl]-1-methyl-1H-pyrazole-5-carboxamide hydrochloride] it is 0.491 µM.

For `C[C@@H](CO)NC(=O)c1cc(-c2ccnc(Nc3cc(C(F)(F)F)cc(C(F)(F)F)c3)n2)nn1C` [Example 19, 3-(2-{[3,5-bis(trifluoromethyl)phenyl]amino}pyrimidin-4-yl)-N-[(2S)-1-hydroxypropan-2-yl]-1-methyl-1H-pyrazole-5-carboxamide], the IC50 was found to be 0.104 µM. The same measure for `Cc1cc(C)cc(Nc2nccc(-c3cc(C(=O)Nc4cc[nH]n4)n(C)n3)n2)c1` [Example 20, 3-{2-[(3,5-dimethylphenyl)amino]pyrimidin-4-yl}-1-methyl-N-(1H-pyrazol-3-yl)-1H-pyrazole-5-carboxamide]: 0.109 µM. The figure for `Cc1cc(C)cc(Nc2nccc(-c3cc(C(=O)N4CCN(C)CC4)n(C)n3)n2)c1` [Example 21, (3-{2-[(3,5-dimethylphenyl)amino]pyrimidin-4-yl}-1-methyl-1H-pyrazol-5-yl)(4-methylpiperazin-1-yl)methanone] is 0.238 µM; for `Cc1cc(C)cc(Nc2nccc(-c3cc(C(=O)NCc4cncn4C)n(C)n3)n2)c1` [Example 25, 3-{2-[(3,5-dimethylphenyl)amino]pyrimidin-4-yl}-1-methyl-N-[(1-methyl-1H-imidazol-5-yl)methyl]-1H-pyrazole-5-carboxamide] it is 0.249 µM. The same measure for `Cc1cc(C)cc(Nc2nccc(-c3cc(C(=O)NC4CN5CCC4CC5)n(C)n3)n2)c1` (stereo not shown) [Example 31, N-(1-azabicyclo[2.2.2]oct-3-yl)-3-{2-[(3,5-dimethylphenyl)amino]pyrimidin-4-yl}-1-methyl-1H-pyrazole-5-carboxamide]: 0.139 µM; for `Cc1cc(C)cc(Nc2nccc(-c3cc(C(=O)N[C@@H]4CCCC[C@H]4O)n(C)n3)n2)c1` [Example 32, 5-[2-(3,5-Dimethyl-phenylamino)-pyrimidin-4-yl]-2-methyl-2H-pyrazole-3-carboxylic acid ((1R,2R)-2-hydroxy-cyclohexyl)-amide]: 0.074 µM; for `Cc1cc(C)cc(Nc2nccc(-c3cc(C(=O)N4CCNCC4)n(C)n3)n2)c1` [Example 36, (3-{2-[(3,5-dimethylphenyl)amino]pyrimidin-4-yl}-1-methyl-1H-pyrazol-5-yl)(piperazin-1-yl)methanone hydrochloride]: 0.169 µM.

With `COc1cc(Nc2nccc(-c3cc(C(=O)N[C@H]4CCCC[C@H]4N)n(C)n3)n2)cc(C(F)(F)F)c1` [Example 37, N-[(1S,2R)-2-aminocyclohexyl]-3-(2-{[3-methoxy-5-(trifluoromethyl)phenyl]amino}pyrimidin-4-yl)-1-methyl-1H-pyrazole-5-carboxamide hydrochloride], the IC50 was found to be 0.009 µM.

Regarding `Cn1nc(-c2ccnc(Nc3ccc4c(c3)c(Cl)cn4C)n2)cc1C(=O)N[C@H]1CCCC[C@H]1N` [Example 38, N-[(1S,2R)-2-aminocyclohexyl]-3-{2-[(3-chloro-1-methyl-1H-indol-5-yl)amino]pyrimidin-4-yl}-1-methyl-1H-pyrazole-5-carboxamide hydrochloride], the IC50 was determined as 0.005 µM. The figure for `Cc1cccc(Nc2nccc(-c3cc(C(=O)N[C@H](CO)C(C)C)n(C)n3)n2)c1` [Example 41, N-[(2S)-1-hydroxy-3-methylbutan-2-yl]-1-methyl-3-{2-[(3-methylphenyl)amino]pyrimidin-4-yl}-1H-pyrazole-5-carboxamide] is 0.077 µM. The figure for `Cc1cc(C)cc(Nc2nccc(-c3cc(C(=O)N[C@@H](C)C(F)(F)F)n(C)n3)n2)c1` [Example 42, 3-{2-[(3,5-dimethylphenyl)amino]pyrimidin-4-yl}-1-methyl-N-[(2S)-1,1,1-trifluoropropan-2-yl]-1H-pyrazole-5-carboxamide] is 0.474 µM. As to `Cc1cc(C)cc(Nc2nccc(-c3cc(C(=O)NCC(C)(C)C)n(C)n3)n2)c1` [Example 45, 3-{2-[(3,5-dimethylphenyl)amino]pyrimidin-4-yl}-N-(2,2-dimethylpropyl)-1-methyl-1H-pyrazole-5-carboxamide], the IC50 was determined as 0.065 µM. The figure for `Cc1cc(C)cc(Nc2nccc(-c3cc(C(=O)NCC(C)C)n(C)n3)n2)c1` [Example 46, 3-{2-[(3,5-dimethylphenyl)amino]pyrimidin-4-yl}-1-methyl-N-(2-methylpropyl)-1H-pyrazole-5-carboxamide] is 0.049 µM; for `Cc1cc(C)cc(Nc2nccc(-c3cc(C(=O)NCC4CC4)n(C)n3)n2)c1` [Example 47, N-(cyclopropylmethyl)-3-{2-[(3,5-dimethylphenyl)amino]pyrimidin-4-yl}-1-methyl-1H-pyrazole-5-carboxamide] it is 0.04 µM; for `Cc1cccc(Nc2nccc(-c3cc(C(=O)N[C@H]4CCCC[C@@H]4N)n(C)n3)n2)c1` [Example 53, N-[(1S,2S)-2-aminocyclohexyl]-1-methyl-3-{2-[(3-methylphenyl)amino]pyrimidin-4-yl}-1H-pyrazole-5-carboxamide] it is 0.015 µM. The figure for `CC[C@H](NC(=O)c1cc(-c2ccnc(Nc3cc(C)cc(C)c3)n2)nn1C)C(F)(F)F` [Example 55, 3-{2-[(3,5-dimethylphenyl)amino]pyrimidin-4-yl}-1-methyl-N-[(2S)-1,1,1-trifluorobutan-2-yl]-1H-pyrazole-5-carboxamide] is 0.324 µM; for `CC[C@@H](NC(=O)c1cc(-c2ccnc(Nc3cc(C)cc(C)c3)n2)nn1C)C(F)(F)F` [Example 56, 3-{2-[(3,5-dimethylphenyl)amino]pyrimidin-4-yl}-1-methyl-N-[(2R)-1,1,1-trifluorobutan-2-yl]-1H-pyrazole-5-carboxamide] it is 0.081 µM; for `COc1cc(Nc2nccc(-c3cc(C(=O)N[C@@H](C)CN4CCCC4)n(C)n3)n2)cc(OC)c1OC` [Example 58, 1-methyl-N-[(2S)-1-(pyrrolidin-1-yl)propan-2-yl]-3-{2-[(3,4,5-trimethoxyphenyl)amino]pyrimidin-4-yl}-1H-pyrazole-5-carboxamide] it is 0.059 µM. The same measure for `C[C@@H](CN1CCC1)NC(=O)c1cc(-c2ccnc(Nc3ccc4c(c3)c(Cl)cn4C)n2)nn1C` [Example 59, N-[(2S)-1-(azetidin-1-yl)propan-2-yl]-3-{2-[(3-chloro-1-methyl-1H-indol-5-yl)amino]pyrimidin-4-yl}-1-methyl-1H-pyrazole-5-carboxamide]: below 0.004 µM; for `CC(C)[C@@H](CN1CCC1)NC(=O)c1cc(-c2ccnc(Nc3cc(Cl)cc(Cl)c3)n2)nn1C` [Example 61, N-[(2S)-1-(azetidin-1-yl)-3-methylbutan-2-yl]-3-{2-[(3,5-dichlorophenyl)amino]pyrimidin-4-yl}-1-methyl-1H-pyrazole-5-carboxamide]: 0.004 µM; for `COc1cccc(Nc2nccc(-c3cc(C(=O)N[C@@H](C)CN4CCCC4)n(C)n3)n2)c1` [Example 70, 3-{2-[(3-methoxyphenyl)amino]pyrimidin-4-yl}-1-methyl-N-[(2S)-1-(pyrrolidin-1-yl)propan-2-yl]-1H-pyrazole-5-carboxamide]: 0.032 µM.

These data come from patent US20240285621A1, “PYRAZOLYL-PYRIMIDINE DERIVATIVES AS KINASE INHIBITORS” (NERVIANO MEDICAL SCIENCES S.R.L., priority 2020, published 2024).
